Data on ten compounds can be found in publication PMC3584441 (The Journal of membrane biology, 2013).

Where no end group is shown, it is not given here.

The subject of the series is sheep erythrocytes. The series is described as follows: Hemolysis assay: decrease in absorbance. The class given is cell-based. Particulars: grouped as hemolytic (yes) or non-hemolytic (no).
In the case of `CC[C@H](C)[C@H](NC(=O)[C@H](CCCCN)NC(=O)[C@H](CCCCN)NC(=O)[C@H](C)NC(=O)[C@H](CC(C)C)NC(=O)[C@H](C)NC(=O)[C@H](C)NC(=O)[C@H](CC(C)C)NC(=O)[C@H](C)NC(=O)[C@H](CCCCN)NC(=O)[C@H](CC(C)C)NC(=O)[C@H](CC(N)=O)NC(=O)[C@@H](NC(=O)[C@H](CCCCN)NC(=O)CNC(=O)[C@H](CC(C)C)NC(=O)[C@H](CC(C)C)NC(=O)[C@H](Cc1c[nH]c2ccccc12)NC(=O)CNC(=O)[C@H](C)N)[C@@H](C)CC)C(=O)N[C@@H](CC(C)C)C(N)=O` [TP10W], the Hemolytic result is recorded as “yes”.

Regarding GLGKLLHAAKKLGKAWLGELLAA [MG-2], the Hemolytic result is “yes”.

As for “KWKLLKKLEKAGAALKEGLLKAGPALALLGAAAALAK-NH2 [CE-2]”, the Hemolytic entry is “yes”.

In the case of `CC[C@H](C)[C@H](NC(=O)[C@H](Cc1c[nH]c2ccccc12)NC(=O)[C@H](CCCCN)NC(=O)[C@@H](NC(=O)[C@H](CC(C)C)NC(=O)[C@H](CCCCN)NC(=O)CNC(=O)[C@@H](NC(=O)[C@@H](NC(=O)[C@H](CO)NC(=O)[C@@H](NC(=O)[C@@H](NC(=O)[C@H](CCCCN)NC(=O)[C@H](CCC(N)=O)NC(=O)[C@H](C)NC(=O)[C@H](CCSC)NC=O)[C@@H](C)CC)[C@@H](C)CC)[C@@H](C)O)[C@@H](C)CC)C(C)C)C(=O)N[C@H](C(=O)N[C@@H](CCCCN)C(=O)N[C@H](C(=O)N[C@H](C(=O)N[C@@H](CC(N)=O)C(=O)N[C@@H](CCCCN)C(=O)N[C@@H](Cc1ccccc1)C(=O)N[C@H](C(=O)N[C@@H](CCCCN)C(=O)N[C@@H](CCCCN)C(=O)O)[C@@H](C)O)C(C)C)[C@@H](C)O)[C@@H](C)CC` (racemic) [DL-1], the Hemolytic entry is reported as “yes”.

Regarding AGWLLGKLALKALAALAKKLL-NH2 [TPW-2], the Hemolytic result is on record as “yes”.

`CC(C)C[C@H](NC=O)C(=O)N[C@@H](C)C(=O)N[C@@H](C)C(=O)N[C@@H](CC(=O)O)C(=O)N[C@@H](CC(C)C)C(=O)N[C@@H](CC(C)C)C(=O)N[C@@H](C)C(=O)N[C@@H](C)C(=O)N[C@@H](CC(C)C)C(=O)NCC(=O)N[C@@H](CC(=O)O)C(=O)N[C@@H](CC(C)C)C(=O)N[C@@H](C)C(=O)N[C@@H](CCCCN)C(=O)N[C@@H](Cc1c[nH]c2ccccc12)C(=O)N[C@@H](CC(C)C)C(=O)N[C@@H](CC(C)C)C(=O)N[C@@H](CC(=O)O)C(=O)N[C@@H](C)C(=O)N[C@@H](CC(C)C)C(=O)N[C@@H](C)C(=O)N[C@@H](CCCCN)C(=O)N[C@@H](C)C(=O)N[C@@H](C)C(=O)N[C@@H](CCCCN)C(=O)N[C@@H](CCCCN)C(=O)O` (racemic) [DL-2a]: the Hemolytic result is reported as “yes”.

AGWLLGDINLKALAALAKKIL-NH2 [TPW-3]: the Hemolytic entry is listed as “yes”.

AGWLLGDINLDALAALAKKIL-NH2 [TPW-1]: the Hemolytic entry is “yes”.

Regarding `CC[C@H](C)[C@H](NC(=O)[C@H](Cc1c[nH]c2ccccc12)NC(=O)[C@H](CCCCN)NC(=O)[C@@H](NC(=O)[C@H](CC(C)C)NC(=O)[C@H](CC(=O)O)NC(=O)CNC(=O)[C@@H](NC(=O)[C@@H](NC(=O)[C@H](CO)NC(=O)[C@@H](NC(=O)[C@@H](NC(=O)[C@H](CC(=O)O)NC(=O)[C@H](CCC(N)=O)NC(=O)[C@H](C)NC(=O)[C@H](CCSC)NC=O)[C@@H](C)CC)[C@@H](C)CC)[C@@H](C)O)[C@@H](C)CC)C(C)C)C(=O)N[C@H](C(=O)N[C@@H](CC(=O)O)C(=O)N[C@H](C(=O)N[C@H](C(=O)N[C@@H](CC(N)=O)C(=O)N[C@@H](CCCCN)C(=O)N[C@@H](Cc1ccccc1)C(=O)N[C@H](C(=O)N[C@@H](CCCCN)C(=O)N[C@@H](CCCCN)C(=O)O)[C@@H](C)O)C(C)C)[C@@H](C)O)[C@@H](C)CC` [δ-Lysin, reference compound], the Hemolytic result is “yes”.

For the compound GILKFLESAKKWLEAFLAEIMNS [MG-1], the Hemolytic result is reported as “yes”.
